The target of one data set is 6xHis‐CtBP1 (UniProt Q13363). The data set is described as follows: AlphaScreen. To be noted: competition against the CtBP1-E1A interaction, peptide at 250 µM (highest concentration), IC50 printed as 'Not determined', read off a plot. In general terms: Bead proximity is the source of the signal in Alpha formats.
Another data set has as its system A375 cells. Briefly: Peptide internalization by anti-FLAG immunofluorescence in A375 cells. Type of data set: in vitro ADME, human. To be noted: for Entry into A375 cells: anti-FLAG immunofluorescence as in Figure 2 (20 μM, 30 min). How it is done: (§1) H1299 or A375 cells were allowed to adhere to a cover slip overnight in DMEM complete media and grown until they reached approximately 75% confluency on the cover slip surface. After a 30 min treatment with 20 μM peptides, TAT (used as a negative control), TAT‐E1A‐WT, and Pep1‐E1A‐WT, cells were fixed for 10 min using 100% methanol, and permeabilized for 1 min in 100% acetone. Each sample was stained with an anti‐FLAG antibody and detected using an Alexa Fluor 555 anti‐mouse IgG (4409S; Cell Signaling Technology, Danvers, MA, USA). DAPI staining was used to visualize the nucleus.

For data set [1], the target named is T1, 6xHis-CtBP1 and GST-E1A (CtBP1-E1A interaction) (Homo sapiens, UniProt Q13363).
T1 construct: 6xHis; made in house
The data set is described as follows: AlphaScreen assay of the CtBP1-E1A interaction. In kind it is binding. To be noted: AlphaScreen competition with GST-E1A; 125 nM 6xHis-CtBP1, 125 nM GST-E1A; peptide 2 μM to 200 μM; three experiments in triplicate; GraphPad Prism; read-out: IC50 (μM), disruption of the CtBP1-E1A interaction. As to the method: The AlphaScreen assay was carried out using 6xHis‐CtBP1 and GST‐E1A proteins following the manufacturer's protocol (PerkinElmer, Waltham, MA, USA) unless otherwise specified. GST‐E1A and 6xHis‐CtBP were purified as previously described (Blevins et al., 2015). To confirm inhibition by CPP‐E1A peptides, each peptide was added at varying concentrations (2 μM to 200 μM) to compete with GST‐E1A in the AlphaScreen assay containing 125 nM 6xHis‐CtBP1 and 125 nM GST‐E1A. The IC50 value of each peptide was calculated using the GRAPHPAD PRISM software (GraphPad Software, San Diego, CA, USA).

Data set [2] is described as follows: Peptide stability in H1299 cells (western blot, fluorescence microscopy). In kind it is in vitro ADME, human. To be noted: 10 μM, 45 min, 2 h, 4 h, 8 h, western blot and FITC fluorescence microscopy.
The test system of data set [3] is H1299 cells. Briefly: Peptide internalization by anti-FLAG immunofluorescence in H1299 cells. Type of data set: in vitro ADME, human. To be noted: 20 μM peptide, 30 min, DAPI. As to the method:
as §1

The subject of data set [4] is H1299 cells. Briefly: Subcellular fractionation and anti-FLAG western blot of the nuclear fraction. In kind it is in vitro ADME, human. To be noted: 1-h treatment, anti-FLAG, two biological replicates. How it is done:
For cellular fractionation, H1299 cells were treated with 42 μg·mL^−1 digitonin in NEH lysis buffer (20 mM HEPES [pH 7.4], 150 mM NaCl, 0.2 mM EDTA, 2 mM DTT, and 2 mM MgCl2) plus a protease inhibitor cocktail (Roche) for 10 min at 4 °C. The H1299 cell lysate was centrifugated at 15 000 g in a Beckman Coulter Microfuge 22R (Beckman Coulter, Brea, CA, USA) for 10 min at 4 °C to remove the cytosolic fraction. The remaining pellet was washed twice with chilled PBS before the addition of the nuclear lysis buffer (40 mM Tris/HCl [pH 7.4], 100 mM NaCl, 10% glycerol, 2 mM β‐ME, and 0.5% Triton X‐100) plus the protease inhibitor cocktail. The nuclear fraction was incubated at 4 °C for 1 h before the final centrifugation at 15 000 g for 20 min. The soluble nuclear fraction was then used for a western blot analysis to monitor peptide levels within the nuclear fraction using a FLAG antibody (LT0420; LifeTein LLC, Somerset, NJ, USA). The western blot was also probed with primary antibodies against α‐tubulin (sc‐8035; SantaCruz Biotechnology, Dallas, TX, USA) and HDAC1 (ab‐68436; Abcam, Cambridge, MA, USA) as cytoplasmic and nuclear controls, respectively, to confirm subcellular fractionation.
Background: Immunoblotting shows a protein as a band on a membrane.

For another data set, the target named is CtBP1. To be noted: ref Zhang et al., 2002; read-out: K d, binding to CtBP1; cited from earlier work. From the text: This idea is strengthened by several studies that have found a correlation between CtBP1/2 overexpression and cancer progression in multiple tumor types, including blood (Senyuk et al., 2002), skin (Deng et al., 2013), breast (Birts et al., 2010; Deng et al., 2012; Di et al., 2013), prostate (Moiola et al., 2014; Wang et al., 2012), ovarian (May et al., 2013; Zhang e ...

No end group written: not given here.

Regarding TAT‐E1A‐WT L27E; S28L, the response with 6xHis‐CtBP1 (parent: est. 3) turned out to be 80 % Bound.
As a reminder, the IC50 is the concentration that gives 50% inhibition. Consider “GSHMKETWWETWWTEWSQPKKKRKVLEEPGQPLDLSCKRPRDYKDDDDK [Pep1-E1A-WT]”, for which, in the data set on A375 cells (anti-FLAG immunofluorescence as in Figure 2), the “Nuclear localization pattern in A375 cells” value is “more predominant nuclear localization pattern”. Besides, the “Entry into A375 cells” value in the data set with A375 cells is given as “can enter the A375 cells”. Moreover, in data set [1], the IC50 amounted to 7.1 ± 1.2 µM. For the same compound, the “Peptide half-life / stability in vitro” value in data set [2] is listed as “short half‐life”. Also, in the data set on H1299 cells [3], the “Localization to the nucleus by immunofluorescence” value is “significant amount of localization to the nucleus”. For the same compound, the “Peptide in the nuclear fraction (western blot)” value in the data set on H1299 cells [4] was “found in the nuclear fraction”.
Turning to Pep1‐E1A‐WT L35E; S36L, the response with 6xHis‐CtBP1 (parent: est. 5) turned out to be 58 % Bound.
Take `NC(=O)C1=CN([C@@H]2O[C@H](COP(=O)(O)OP(=O)(O)OC[C@H]3O[C@@H](n4cnc5c(N)ncnc54)[C@H](O)[C@@H]3O)[C@@H](O)[C@H]2O)C=CC1` [NADH, nicotinamide adenine dinucleotide]: on CtBP1, the Kd is 0.1 µM.
Regarding “GSHMGRKKRRQRRRPPQLEEPGQPLDLSCKRPRDYKDDDDK [TAT-E1A-WT]”, the “Entry into A375 cells” value in the data set on A375 cells is given as “can enter the A375 cells”. Further, in data set [1], the IC50 was 5.6 ± 1.4 µM. Also, the “Localization to the nucleus by immunofluorescence” value in the data set with H1299 cells [3] was “much lower amount in the nucleus”. Besides, the “Peptide in the nuclear fraction (western blot)” value in the data set on H1299 cells [4] was “found in the nuclear fraction”.

Source of the values: publication PMC6068344, “CPP‐E1A fusion peptides inhibit CtBP‐mediated transcriptional repression” (Molecular Oncology, 2018).
